# Measured values as given in US20240409585A1, “MACROCYCLIC IMMUNOMODULATORS” (priority 2021, published 2024).
# Bridge positions count the residues as written; N and C are the ends. Square brackets hold non-standard residues; d marks the D form. Peptide text beside a SMILES is read from it. * marks the point of attachment. Phe(4-COOH) = N[C@@H](Cc1ccc(C(=O)O)cc1)C(=O)O; Bip = N[C@@H](Cc1ccc(-c2ccccc2)cc1)C(=O)O; Phe(3-CN) = N#Cc1cccc(C[C@H](N)C(=O)O)c1; Phe(3-Me) = Cc1cccc(C[C@H](N)C(=O)O)c1; mTyr = N[C@@H](Cc1cccc(O)c1)C(=O)O; 3Pal = N[C@@H](Cc1cccnc1)C(=O)O; Cit = NC(=O)NCCC[C@H](N)C(=O)O; Pip = O=C(O)[C@@H]1CCCCN1; Carboxymethyl = O=C(O)C*; NMeA = CN[C@@H](C)C(=O)O; Orn = NCCC[C@H](N)C(=O)O; Dab = NCC[C@H](N)C(=O)O
# Biological target: T1, PE-labeled human PD-L1-Ig binding to Jurkat cell line over-expressing human PD-1 (Jurkat-PD-1) (Homo sapiens, UniProt Q15116)
# T1 construct: expressed in transfected cells; host or cells: Jurkat
# Assay: Jurkat-PD-1 Cell Binding High-Content Screening Assay (CBA): Method 1
# Details: Jurkat-hPD-1 cells, PE-labeled PD-L1-Ig 20 nM final; read-out: Jurkat HPDL1 PD1 IC50 (uM) (Method 1)
# T1 sequence (Q15116 25-288): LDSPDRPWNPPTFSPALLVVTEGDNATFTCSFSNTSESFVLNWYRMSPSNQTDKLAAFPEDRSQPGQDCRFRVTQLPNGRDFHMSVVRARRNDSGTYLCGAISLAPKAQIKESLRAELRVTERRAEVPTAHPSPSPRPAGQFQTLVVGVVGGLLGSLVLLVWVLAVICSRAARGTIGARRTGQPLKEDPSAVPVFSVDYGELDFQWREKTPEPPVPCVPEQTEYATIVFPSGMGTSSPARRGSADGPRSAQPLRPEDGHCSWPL
row,IC50,Compound
1,0.04 µM,CC(C)C[C@@H]1NC(=O)[C@H](CCN)NC(=O)[C@@H](CC(C)C)NC(=O)[C@H](C)N(C)C(=O)[C@H](Cc2cnc[nH]2)NC(=O)[C@H](Cc2ccc(-c3ccccc3)cc2)NC(=O)[C@H](C(C)C)NC(=O)[C@H](Cc2c[nH]c3ccccc23)NC(=O)[C@H](CC(=O)O)NC(=O)[C@H](Cc2ccc(O)cc2)NC(=O)[C@H](Cc2cccnc2)NC(=O)CSC[C@@H](C(=O)N[C@@H](C)C(N)=O)NC(=O)[C@H]([C@@H](C)O)NC(=O)[C@H](C(C)C)NC1=O [Compound 1374] ({CH2CO}-[3Pal]YDWV[Bip]H[NMeA][dL][Dab]LVTCA-NH2; thioether N-14)
2,0.05 µM,CC(C)C[C@@H]1NC(=O)[C@H](CCN)NC(=O)[C@@H](CC(C)C)NC(=O)[C@H](C)N(C)C(=O)[C@H](Cc2cnc[nH]2)NC(=O)[C@H](Cc2ccc(-c3ccccc3)cc2)NC(=O)[C@H](C(C)C)NC(=O)[C@H](Cc2c[nH]c3ccccc23)NC(=O)[C@H](CC(=O)O)NC(=O)[C@H](Cc2cccc(C#N)c2)NC(=O)[C@H](CC(N)=O)NC(=O)CSC[C@@H](C(=O)N[C@@H](C)C(N)=O)NC(=O)[C@H]([C@@H](C)O)NC(=O)[C@H](C(C)C)NC1=O [Compound 1375] ({CH2CO}-N[Phe(3-CN)]DWV[Bip]H[NMeA][dL][Dab]LVTCA-NH2; thioether N-14)
3,0.02 µM,Cc1cccc(C[C@@H]2NC(=O)[C@H](CC(=O)O)NC(=O)[C@H](Cc3ccc(O)cc3)NC(=O)[C@H](CC(N)=O)NC(=O)CSC[C@@H](C(=O)N[C@@H](C)C(N)=O)NC(=O)[C@H]([C@@H](C)O)NC(=O)[C@H](C(C)C)NC(=O)[C@H](CC(C)C)NC(=O)[C@H](CCN)NC(=O)[C@@H](CC(C)C)NC(=O)[C@H](C)N(C)C(=O)[C@H](Cc3cnc[nH]3)NC(=O)[C@H](Cc3ccc(-c4ccccc4)cc3)NC(=O)[C@H](C(C)C)NC2=O)c1 [Compound 1376] ({CH2CO}-NYD[Phe(3-Me)]V[Bip]H[NMeA][dL][Dab]LVTCA-NH2; thioether N-14)
4,0.02 µM,CC(C)C[C@@H]1NC(=O)[C@H](CCN)NC(=O)[C@@H](CC(C)C)NC(=O)[C@H](C)N(C)C(=O)[C@H](C(C)C)NC(=O)[C@H](Cc2ccc(-c3ccccc3)cc2)NC(=O)[C@H](C(C)C)NC(=O)[C@H](Cc2c[nH]c3ccccc23)NC(=O)[C@H](CC(=O)O)NC(=O)[C@H](Cc2ccc(OCC(=O)O)cc2)NC(=O)[C@H](CC(N)=O)NC(=O)CSC[C@@H](C(=O)N[C@@H](C)C(N)=O)NC(=O)[C@H]([C@@H](C)O)NC(=O)[C@H](C(C)C)NC1=O [Compound 1377] ({CH2CO}-NY(Carboxymethyl)DWV[Bip]V[NMeA][dL][Dab]LVTCA-NH2; thioether N-14)
5,0.01 µM,CC(C)C[C@@H]1NC(=O)[C@H](CCN)NC(=O)[C@@H](CC(C)C)NC(=O)[C@H](C)N(C)C(=O)[C@H](C(C)C)NC(=O)[C@H](Cc2ccc(-c3ccccc3)cc2)NC(=O)[C@H](C(C)C)NC(=O)[C@H](Cc2c[nH]c3ccccc23)NC(=O)[C@H](CC(=O)O)NC(=O)[C@H](Cc2ccc(C(=O)O)cc2)NC(=O)[C@H](CC(N)=O)NC(=O)CSC[C@@H](C(=O)N[C@@H](C)C(N)=O)NC(=O)[C@H]([C@@H](C)O)NC(=O)[C@H](C(C)C)NC1=O [Compound 1378] ({CH2CO}-N[Phe(4-COOH)]DWV[Bip]V[NMeA][dL][Dab]LVTCA-NH2; thioether N-14)
6,0.02 µM,CC(C)C[C@@H]1NC(=O)[C@H](CCN)NC(=O)[C@@H](CC(C)C)NC(=O)[C@H](C)N(C)C(=O)[C@H](C(C)C)NC(=O)[C@H](Cc2ccc(-c3ccccc3)cc2)NC(=O)[C@H](C(C)C)NC(=O)[C@H](Cc2c[nH]c3ccccc23)NC(=O)[C@H](CC(=O)O)NC(=O)[C@H](Cc2cccc(C#N)c2)NC(=O)[C@H](CC(N)=O)NC(=O)CSC[C@@H](C(=O)N[C@@H](C)C(N)=O)NC(=O)[C@H]([C@@H](C)O)NC(=O)[C@H](C(C)C)NC1=O [Compound 1380] ({CH2CO}-N[Phe(3-CN)]DWV[Bip]V[NMeA][dL][Dab]LVTCA-NH2; thioether N-14)
7,0.03 µM,CC(C)C[C@@H]1NC(=O)[C@H](CCN)NC(=O)[C@@H](CC(C)C)NC(=O)[C@@H]2CCCCN2C(=O)[C@H](Cc2cnc[nH]2)NC(=O)[C@H](Cc2ccc(-c3ccccc3)cc2)NC(=O)[C@H](C(C)C)NC(=O)[C@H](Cc2c[nH]c3ccccc23)NC(=O)[C@H](CC(=O)O)NC(=O)[C@H](Cc2ccc(O)cc2)NC(=O)[C@H](CC(N)=O)NC(=O)CSC[C@@H](C(=O)N[C@@H](C)C(N)=O)NC(=O)[C@H]([C@@H](C)O)NC(=O)[C@H](C(C)C)NC1=O [Compound 1381] ({CH2CO}-NYDWV[Bip]H[Pip][dL][Dab]LVTCA-NH2; thioether N-14)
8,0.08 µM,CC(C)C[C@@H]1NC(=O)[C@H](CCN)NC(=O)[C@@H](CC(C)C)NC(=O)[C@@H]2CCCCN2C(=O)[C@H](CCCNC(N)=O)NC(=O)[C@H](Cc2ccc(-c3ccccc3)cc2)NC(=O)[C@H](C(C)C)NC(=O)[C@H](Cc2c[nH]c3ccccc23)NC(=O)[C@H](CC(=O)O)NC(=O)[C@H](Cc2ccc(O)cc2)NC(=O)[C@H](CC(N)=O)NC(=O)CSC[C@@H](C(=O)N[C@@H](C)C(N)=O)NC(=O)[C@H]([C@@H](C)O)NC(=O)[C@H](C(C)C)NC1=O [Compound 1382] ({CH2CO}-NYDWV[Bip][Cit][Pip][dL][Dab]LVTCA-NH2; thioether N-14)
9,0.06 µM,CC(C)C[C@@H]1NC(=O)[C@H](CCN)NC(=O)[C@@H](CC(C)C)NC(=O)[C@H](C)N(C)C(=O)[C@H](Cc2cnc[nH]2)NC(=O)[C@H](Cc2ccc(-c3ccccc3)cc2)NC(=O)[C@H](C(C)C)NC(=O)[C@H](Cc2c[nH]c3ccccc23)NC(=O)[C@H](CC(=O)O)NC(=O)[C@H](Cc2ccc(C(=O)O)cc2)NC(=O)[C@H](CC(N)=O)NC(=O)CSC[C@@H](C(=O)N[C@@H](C)C(N)=O)NC(=O)[C@H]([C@@H](C)O)NC(=O)[C@H](C(C)C)NC1=O [Compound 1383] ({CH2CO}-N[Phe(4-COOH)]DWV[Bip]H[NMeA][dL][Dab]LVTCA-NH2; thioether N-14)
10,0.02 µM,CC(C)C[C@@H]1NC(=O)[C@H](CCN)NC(=O)[C@@H](CC(C)C)NC(=O)[C@H](C)N(C)C(=O)[C@H](C(C)C)NC(=O)[C@H](Cc2ccc(-c3ccccc3)cc2)NC(=O)[C@H](C(C)C)NC(=O)[C@H](Cc2c[nH]c3ccccc23)NC(=O)[C@H](CC(=O)O)NC(=O)[C@H](Cc2cccc(O)c2)NC(=O)[C@H](CC(N)=O)NC(=O)CSC[C@@H](C(=O)N[C@@H](C)C(N)=O)NC(=O)[C@H]([C@@H](C)O)NC(=O)[C@H](C(C)C)NC1=O [Compound 1384] ({CH2CO}-N[mTyr]DWV[Bip]V[NMeA][dL][Dab]LVTCA-NH2; thioether N-14)
11,0.05 µM,CC(C)C[C@@H]1NC(=O)[C@H](CCN)NC(=O)[C@@H](CC(C)C)NC(=O)[C@H](C)N(C)C(=O)[C@H](CCCN)NC(=O)[C@H](Cc2ccc(-c3ccccc3)cc2)NC(=O)[C@H](C(C)C)NC(=O)[C@H](Cc2c[nH]c3ccccc23)NC(=O)[C@H](CC(=O)O)NC(=O)[C@H](Cc2ccc(C(=O)O)cc2)NC(=O)[C@H](CC(N)=O)NC(=O)CSC[C@@H](C(=O)N[C@@H](C)C(N)=O)NC(=O)[C@H]([C@@H](C)O)NC(=O)[C@H](C(C)C)NC1=O [Compound 1386] ({CH2CO}-N[Phe(4-COOH)]DWV[Bip][Orn][NMeA][dL][Dab]LVTCA-NH2; thioether N-14)
